Results published in ChEMBL document CHEMBL1687887, “Evolution of potent and stable placental-growth-factor-1-targeting CovX-bodies from phage display peptide discovery” (J Med Chem, 2011).
Bridge positions count the residues as written; N and C are the ends. Peptide text beside a SMILES is read from it. * marks the point of attachment. X1 = O=C(COCC(=O)*)Nc1ccc(CCC(=O)N2CCC2=O)cc1

Experiments:
Placenta growth factor [1] = target: T1, Placenta growth factor (Homo sapiens, UniProt P49763); experiment: Binding affinity to human PlGF-1; details: read-out: Kd
T1 sequence (P49763 whole entry): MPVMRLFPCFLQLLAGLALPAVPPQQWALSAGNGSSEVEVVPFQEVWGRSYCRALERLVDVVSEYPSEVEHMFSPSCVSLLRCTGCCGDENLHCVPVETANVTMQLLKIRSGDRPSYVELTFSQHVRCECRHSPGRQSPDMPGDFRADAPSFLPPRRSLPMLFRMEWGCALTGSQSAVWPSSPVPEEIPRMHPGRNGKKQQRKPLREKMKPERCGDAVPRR

Placenta growth factor [2] = target: T2, Placenta growth factor (Mus musculus, UniProt P49764); experiment: Inhibition of mouse PlGF-VEGFR-1 interaction by ELISA
T2 sequence (P49764 whole entry): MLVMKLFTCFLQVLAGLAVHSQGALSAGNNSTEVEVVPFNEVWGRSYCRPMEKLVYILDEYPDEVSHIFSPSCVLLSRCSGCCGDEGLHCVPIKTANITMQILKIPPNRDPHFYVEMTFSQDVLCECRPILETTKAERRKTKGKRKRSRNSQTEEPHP

[3] = Stability in Swiss Webster mouse serum assessed as functional compound remaining after 6 hrs; format: ADME, cell-free; details: read-out: Stability
Placenta growth factor [4] = target: T1, Placenta growth factor; experiment: Inhibition of human PlGF-1-VEGFR-1 interaction by ELISA

SMILES	Kd (Placenta growth factor [1]) [nM]	IC50 (Placenta growth factor [2]) [nM]	remaining at 6 h [3] [%]	IC50 (Placenta growth factor [4]) [nM]
CC[C@H](C)[C@@H]1NC(=O)[C@H](Cc2ccc(O)cc2)NC(=O)[C@H](Cc2cnc[nH]2)NC(=O)[C@@H](NC(=O)[C@@H](NC(=O)[C@H](CCC(=O)O)NC(=O)[C@H](Cc2ccccc2)NC(C)=O)C(C)C)CSSC[C@@H](C(=O)N[C@H](C(=O)N[C@@H](CCCN=C(N)N)C(=O)N[C@@H](Cc2ccc(O)cc2)C(N)=O)[C@@H](C)O)NC(=O)[C@H](Cc2cnc[nH]2)NC(=O)[C@@H]2CCCN2C(=O)[C@H](CC(C)C)NC(=O)[C@H](CCCCNC(=O)COCC(=O)Nc2ccc(CCC(=O)N3CCC3=O)cc2)NC1=O	0.3	0.7	4	
CC[C@H](C)[C@@H]1NC(=O)[C@H](Cc2ccc(O)cc2)NC(=O)[C@H](Cc2cnc[nH]2)NC(=O)[C@@H](NC(=O)[C@@H](NC(=O)[C@H](CCC(=O)O)NC(=O)[C@H](Cc2ccccc2)NC(C)=O)C(C)C)CSSC[C@@H](C(=O)N[C@@H](C(=O)N[C@H](CCCN=C(N)N)C(=O)N[C@H](Cc2ccc(O)cc2)C(N)=O)[C@@H](C)O)NC(=O)[C@H](Cc2cnc[nH]2)NC(=O)[C@@H]2CCCN2C(=O)[C@H](CC(C)C)NC(=O)[C@H](CCCCNC(=O)COCC(=O)Nc2ccc(CCC(=O)N3CCC3=O)cc2)NC1=O		0.2	23	
CSCC[C@H](NC(=O)[C@@H](NC(=O)[C@H](CCCCNC(C)=O)NC(=O)[C@@H]1CSSC[C@H](NC(=O)[C@H](CCCCNC(=O)COCC(=O)Nc2ccc(CCC(=O)N3CCC3=O)cc2)NC(=O)[C@H](CC(=O)O)NC(=O)[C@H](Cc2ccccc2)NC(C)=O)C(=O)N[C@@H](CC(N)=O)C(=O)N[C@@H](Cc2c[nH]c3ccccc23)C(=O)N[C@@H](C(C)C)C(=O)N[C@@H]([C@@H](C)O)C(=O)N[C@@H](CC(C)C)C(=O)N2CCC[C@H]2C(=O)N[C@@H](Cc2cnc[nH]2)C(=O)N1)C(C)C)C(N)=O (Ac-FDK(X1)CNWVTLPHCK(Ac)VM-NH2; disulfide 4-12)	> 1000	> 1000		
CSCC[C@H](NC(=O)[C@@H](NC(=O)[C@H](CCCCNC(C)=O)NC(=O)[C@@H]1CSSC[C@H](NC(=O)[C@@H](NC(=O)[C@H](CC(=O)O)NC(=O)[C@H](Cc2ccccc2)NC(C)=O)C(C)C)C(=O)N[C@@H](CC(N)=O)C(=O)N[C@@H](Cc2c[nH]c3ccccc23)C(=O)N[C@@H](C(C)C)C(=O)N[C@@H]([C@@H](C)O)C(=O)N[C@@H](CC(C)C)C(=O)N[C@@H](CCCCNC(=O)COCC(=O)Nc2ccc(CCC(=O)N3CCC3=O)cc2)C(=O)N[C@@H](Cc2cnc[nH]2)C(=O)N1)C(C)C)C(N)=O (Ac-FDVCNWVTLK(X1)HCK(Ac)VM-NH2; disulfide 4-12)	> 1000	> 1000		
CC[C@H](C)[C@@H]1NC(=O)[C@H](Cc2ccc(O)cc2)NC(=O)[C@H](Cc2cnc[nH]2)NC(=O)[C@@H](NC(=O)[C@@H](NC(=O)[C@H](CCC(=O)O)NC(=O)[C@H](Cc2ccccc2)NC(C)=O)C(C)C)CSSC[C@@H](C(=O)N[C@H](C(=O)N[C@@H](CCCN=C(N)N)C(=O)N[C@@H](Cc2ccc(O)cc2)C(N)=O)[C@@H](C)O)NC(=O)[C@H](Cc2cnc[nH]2)NC(=O)[C@@H]2CCCN2C(=O)[C@H](CC(C)C)NC(=O)[C@H](CCCN=C(N)N)NC1=O (Ac-FEVCHYIRLPHCTRY-NH2; disulfide 4-12)		400		
CC[C@H](C)[C@H](NC(=O)[C@H](CC(=O)O)NC(=O)[C@H](Cc1ccc(O)cc1)NC(C)=O)C(=O)N[C@H]1CSSC[C@@H](C(=O)N[C@@H](CCCCN)C(=O)N[C@@H](C)C(=O)N[C@H](C(N)=O)C(C)C)NC(=O)[C@H](Cc2cnc[nH]2)NC(=O)[C@@H]2CCCN2C(=O)[C@H](CC(C)C)NC(=O)[C@H](CCCNC(=N)N)NC(=O)[C@H]([C@@H](C)CC)NC(=O)[C@H](Cc2ccc(O)cc2)NC(=O)[C@H](CCCCN)NC1=O (Ac-YDICKYIRLPHCKAV-NH2; disulfide 4-12)				9000
CC[C@H](C)[C@H](NC(=O)[C@H](CC(=O)O)NC(=O)[C@H](Cc1ccc(O)cc1)NC(C)=O)C(=O)N[C@H]1CSSC[C@@H](C(=O)N[C@@H](CCCN=C(N)N)C(=O)N[C@@H](C)C(=O)N[C@H](C(N)=O)C(C)C)NC(=O)[C@H](Cc2cnc[nH]2)NC(=O)[C@@H]2CCCN2C(=O)[C@H](CC(C)C)NC(=O)[C@H](CCCNC(=N)N)NC(=O)[C@H]([C@@H](C)CC)NC(=O)[C@H](Cc2ccc(O)cc2)NC(=O)[C@H](CCCCN)NC1=O (Ac-YDICKYIRLPHCRAV-NH2; disulfide 4-12)				9000

Results, then the molecule that gave them:

Kd (Placenta growth factor [1]) [nM]	IC50 (Placenta growth factor [2]) [nM]	remaining at 6 h [3] [%]	IC50 (Placenta growth factor [4]) [nM]	SMILES
6	624			CSCC[C@H](NC(=O)[C@@H](NC(=O)[C@H](CCCCNC(C)=O)NC(=O)[C@@H]1CSSC[C@H](NC(=O)[C@@H](NC(=O)[C@H](CC(=O)O)NC(=O)[C@H](Cc2ccccc2)NC(C)=O)C(C)C)C(=O)N[C@@H](CCCCNC(=O)COCC(=O)Nc2ccc(CCC(=O)N3CCC3=O)cc2)C(=O)N[C@@H](Cc2c[nH]c3ccccc23)C(=O)N[C@@H](C(C)C)C(=O)N[C@@H]([C@@H](C)O)C(=O)N[C@@H](CC(C)C)C(=O)N2CCC[C@H]2C(=O)N[C@@H](Cc2cnc[nH]2)C(=O)N1)C(C)C)C(N)=O (Ac-FDVCK(X1)WVTLPHCK(Ac)VM-NH2; disulfide 4-12)
1000			1000	CSCC[C@H](NC(=O)[C@@H](NC(=O)[C@H](CCCCN)NC(=O)[C@@H]1CSSC[C@H](NC(=O)[C@@H](NC(=O)[C@H](CC(=O)O)NC(=O)[C@H](Cc2ccccc2)NC(C)=O)C(C)C)C(=O)N[C@@H](CCCCN)C(=O)N[C@@H](Cc2c[nH]c3ccccc23)C(=O)N[C@@H](C(C)C)C(=O)N[C@@H]([C@@H](C)O)C(=O)N[C@@H](CC(C)C)C(=O)N2CCC[C@H]2C(=O)N[C@@H](Cc2cnc[nH]2)C(=O)N1)C(C)C)C(N)=O (Ac-FDVCKWVTLPHCKVM-NH2; disulfide 4-12)
> 1000	> 1000			CSCC[C@H](NC(=O)[C@@H](NC(=O)[C@H](CCCCNC(C)=O)NC(=O)[C@@H]1CSSC[C@H](NC(=O)[C@@H](NC(=O)[C@H](CC(=O)O)NC(=O)[C@H](Cc2ccccc2)NC(C)=O)C(C)C)C(=O)N[C@@H](CC(N)=O)C(=O)N[C@@H](CCCCNC(=O)COCC(=O)Nc2ccc(CCC(=O)N3CCC3=O)cc2)C(=O)N[C@@H](C(C)C)C(=O)N[C@@H]([C@@H](C)O)C(=O)N[C@@H](CC(C)C)C(=O)N2CCC[C@H]2C(=O)N[C@@H](Cc2cnc[nH]2)C(=O)N1)C(C)C)C(N)=O (Ac-FDVCNK(X1)VTLPHCK(Ac)VM-NH2; disulfide 4-12)
> 1000	> 1000			CSCC[C@H](NC(=O)[C@@H](NC(=O)[C@H](CCCCNC(C)=O)NC(=O)[C@@H]1CSSC[C@H](NC(=O)[C@@H](NC(=O)[C@H](CC(=O)O)NC(=O)[C@H](Cc2ccccc2)NC(C)=O)C(C)C)C(=O)N[C@@H](CC(N)=O)C(=O)N[C@@H](Cc2c[nH]c3ccccc23)C(=O)N[C@@H](CCCCNC(=O)COCC(=O)Nc2ccc(CCC(=O)N3CCC3=O)cc2)C(=O)N[C@@H]([C@@H](C)O)C(=O)N[C@@H](CC(C)C)C(=O)N2CCC[C@H]2C(=O)N[C@@H](Cc2cnc[nH]2)C(=O)N1)C(C)C)C(N)=O (Ac-FDVCNWK(X1)TLPHCK(Ac)VM-NH2; disulfide 4-12)
9	4	20		CSCC[C@H](NC(=O)[C@@H](NC(=O)[C@H](CCCCNC(C)=O)NC(=O)[C@@H]1CSSC[C@H](NC(=O)[C@@H](NC(=O)[C@H](CC(=O)O)NC(=O)[C@H](Cc2ccccc2)NC(C)=O)C(C)C)C(=O)N[C@@H](CC(N)=O)C(=O)N[C@@H](Cc2c[nH]c3ccccc23)C(=O)N[C@@H](C(C)C)C(=O)N[C@@H](CCCCNC(=O)COCC(=O)Nc2ccc(CCC(=O)N3CCC3=O)cc2)C(=O)N[C@@H](CC(C)C)C(=O)N2CCC[C@H]2C(=O)N[C@@H](Cc2cnc[nH]2)C(=O)N1)C(C)C)C(N)=O (Ac-FDVCNWVK(X1)LPHCK(Ac)VM-NH2; disulfide 4-12)
> 1000	> 1000			CSCC[C@H](NC(=O)[C@@H](NC(=O)[C@H](CCCCNC(C)=O)NC(=O)[C@@H]1CSSC[C@H](NC(=O)[C@@H](NC(=O)[C@H](CC(=O)O)NC(=O)[C@H](Cc2ccccc2)NC(C)=O)C(C)C)C(=O)N[C@@H](CC(N)=O)C(=O)N[C@@H](Cc2c[nH]c3ccccc23)C(=O)N[C@@H](C(C)C)C(=O)N[C@@H]([C@@H](C)O)C(=O)N[C@@H](CCCCNC(=O)COCC(=O)Nc2ccc(CCC(=O)N3CCC3=O)cc2)C(=O)N2CCC[C@H]2C(=O)N[C@@H](Cc2cnc[nH]2)C(=O)N1)C(C)C)C(N)=O (Ac-FDVCNWVTK(X1)PHCK(Ac)VM-NH2; disulfide 4-12)
> 1000	> 1000			CSCC[C@H](NC(=O)[C@@H](NC(=O)[C@H](CCCCNC(C)=O)NC(=O)[C@@H]1CSSC[C@H](NC(=O)[C@@H](NC(=O)[C@H](CC(=O)O)NC(=O)[C@H](Cc2ccccc2)NC(C)=O)C(C)C)C(=O)N[C@@H](CC(N)=O)C(=O)N[C@@H](Cc2c[nH]c3ccccc23)C(=O)N[C@@H](C(C)C)C(=O)N[C@@H]([C@@H](C)O)C(=O)N[C@@H](CC(C)C)C(=O)N2CCC[C@H]2C(=O)N[C@@H](CCCCNC(=O)COCC(=O)Nc2ccc(CCC(=O)N3CCC3=O)cc2)C(=O)N1)C(C)C)C(N)=O (Ac-FDVCNWVTLPK(X1)CK(Ac)VM-NH2; disulfide 4-12)
200			1000	CSCC[C@H](NC(=O)[C@@H](NC(=O)[C@H](CCCCN)NC(=O)[C@@H]1CSSC[C@H](NC(=O)[C@@H](NC(=O)[C@H](CC(=O)O)NC(=O)[C@H](Cc2ccccc2)NC(=O)COCC(=O)Nc2ccc(CCC(=O)N3CCC3=O)cc2)C(C)C)C(=O)N[C@@H](CCCCN)C(=O)N[C@@H](Cc2c[nH]c3ccccc23)C(=O)N[C@@H](C(C)C)C(=O)N[C@@H]([C@@H](C)O)C(=O)N[C@@H](CC(C)C)C(=O)N2CCC[C@H]2C(=O)N[C@@H](Cc2cnc[nH]2)C(=O)N1)C(C)C)C(N)=O (X1-FDVCKWVTLPHCKVM-NH2; disulfide 4-12)
